From patent publication US10307413B2, “Tetrahydro- and dihydro-isoquinoline PRMT5 inhibitors and uses thereof” (Epizyme, Inc., priority 2013, dated 2019)
Read-outs that look alike come from different tables or passages of the source.

Assays:
[1] = test system: symmetric di-methyl arginine in Z-138 cells; assay: Z-138 Methylation Assay (In Cell Western for symmetric di-methyl arginine and DNA content); type: cell-based; details: Homo sapiens, read-out: ICW EC50
How it was run: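 Z-138 cells (50,000 cells/mL) treated with compound 96 h at 37 °C, then fixed and stained for symmetric di-methyl arginine (800 nm) with DRAQ5 DNA counterstain (700 nm) on Licor Odyssey.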

Z-138 cell line = assay: Z-138 Proliferation Assay (Cell Titer Glo, 5 days); type: cell-based; details: Homo sapiens, 120 h, Z-138 cells, 5 days, read-out: Proliferation EC50
How it was run: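 Z-138 cells exposed 5 days at 37 °C, 5% CO2 to nine-point 3-fold dilutions (final top 20 μM, 0.2% DMSO), in triplicate. Viability read as ATP by CellTiter-Glo luminescence; IC50 from 4-parameter fit of normalized dose-response curves.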

PRMT5/MEP50 = PRMT5/MEP50 (Homo sapiens (Human), UniProt O14744); assay: PRMT5 Biochemical Assay (PRMT5/MEP50 enzyme assay on peptide substrate, 3H-SAM Flashplate)
Chain of PRMT5/MEP50 (O14744 other isoform, or with tags, fused parts or gaps): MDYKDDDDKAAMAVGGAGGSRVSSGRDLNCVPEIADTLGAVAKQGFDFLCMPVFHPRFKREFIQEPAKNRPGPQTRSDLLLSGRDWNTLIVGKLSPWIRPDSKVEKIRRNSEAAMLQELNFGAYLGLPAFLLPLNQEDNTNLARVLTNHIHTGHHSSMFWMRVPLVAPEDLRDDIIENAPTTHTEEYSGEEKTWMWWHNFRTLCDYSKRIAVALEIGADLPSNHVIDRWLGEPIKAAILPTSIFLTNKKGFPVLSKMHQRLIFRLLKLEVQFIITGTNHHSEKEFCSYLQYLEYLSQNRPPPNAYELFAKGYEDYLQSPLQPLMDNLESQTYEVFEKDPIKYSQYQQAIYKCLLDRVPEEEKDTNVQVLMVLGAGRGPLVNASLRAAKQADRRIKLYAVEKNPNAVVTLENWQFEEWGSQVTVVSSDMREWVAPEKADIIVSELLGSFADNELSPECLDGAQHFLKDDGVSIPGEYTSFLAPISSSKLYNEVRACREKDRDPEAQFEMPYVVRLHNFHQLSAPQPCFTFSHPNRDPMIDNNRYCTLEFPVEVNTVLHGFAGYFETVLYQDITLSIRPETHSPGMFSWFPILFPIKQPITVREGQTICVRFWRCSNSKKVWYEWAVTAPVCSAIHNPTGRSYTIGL
Chain of PRMT5/MEP50 (Q9BQA1 other isoform, or with tags, fused parts or gaps partner): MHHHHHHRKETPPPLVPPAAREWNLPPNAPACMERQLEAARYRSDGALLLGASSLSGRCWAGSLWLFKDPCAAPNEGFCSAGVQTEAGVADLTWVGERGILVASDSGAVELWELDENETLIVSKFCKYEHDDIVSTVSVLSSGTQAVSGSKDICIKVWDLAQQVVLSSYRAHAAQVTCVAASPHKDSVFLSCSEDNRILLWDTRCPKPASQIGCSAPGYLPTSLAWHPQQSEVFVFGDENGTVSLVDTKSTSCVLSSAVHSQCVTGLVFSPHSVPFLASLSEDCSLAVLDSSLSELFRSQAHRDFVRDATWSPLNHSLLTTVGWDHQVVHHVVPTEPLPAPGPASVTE
Source text: S-adenosylmethionine (SAM), S-adenosylhomocysteine (SAH), bicine, KCl, Tween20, dimethylsulfoxide (DMSO), bovine skin gelatin (BSG), and Tris(2-carboxyethyl)phosphine hydrochloride solution (TCEP) were purchased from Sigma-Aldrich at the highest level of purity possible. ^3H-SAM was purchase from American Radiolabeled Chemicals with a specific activity of 80 Ci/mmol. 384-well streptavidin Flashplates were purchased from PerkinElmer.
Peptide representative of human histone H4 residues 1-15 was synthesized with a C-terminal linker-affinity tag motif and a C-terminal amide cap by 21st Century Biochemicals.
The amplified genes were sublconed into pENTR/D/TEV (Life Technologies) and subsequently transferred by Gateway™ attL×attR recombination to pDEST8 baculovirus expression vector (Life Technologies).
Protein over-expression was accomplished by infecting exponentially growing Spodoptera frugiperda (SF9) cell culture at 1.2×10^6 cell/ml with a 5000 fold dilution of BIIC stock. Infections were carried out at 27° C. for 72 hours, harvested by centrifugation, and stored at −80° C. for purification.
Flag-PRMT5/6His-MeP50 was eluted with 300 mM Imidazole in the same buffer.
General Procedure for PRMT5/MEP50 Enzyme Assays on Peptide Substrates.
The assays were all performed in a buffer consisting of 20 mM Bicine (pH=7.6), 1 mM TCEP, 0.005% BSG, and 0.002% Tween20, prepared on the day of use. […] DMSO (1 ul) was added to Columns 11, 12, 23, 24, rows A-H for the maximum signal control and 1 ul of SAH, a known product and inhibitor of PRMT5/MEP50, was added to columns 11, 12, 23, 24, rows I-P for the minimum signal control. A cocktail (40 ul) containing the PRMT5/MEP50 enzyme and the peptide was added by Multidrop Combi (Thermo-Fisher). The compounds were allowed to incubate with PRMT5/MEP50 for 30 min at 25 degrees Celsius, then a cocktail (10 ul) containing ^3H-SAM was added to initiate the reaction (final volume=51 ul). […] The assays were stopped by the addition of non-radioactive SAM (10 ul) to a final concentration of 600 uM, which dilutes the ^3H-SAM to a level where its incorporation into the peptide substrate is no longer detectable. 50 ul of the reaction in the 384-well polypropylene plate was then transferred to a 384-well Flashplate and the biotinylated peptides were allowed to bind to the streptavidin surface for at least 1 hour before being washed three times with 0.1% Tween20 in a Biotek ELx405 plate washer. The plates were then read in a PerkinElmer TopCount plate reader to measure the quantity of ^3H-labeled peptide bound to the Flashplate surface, measured as disintegrations per minute (dpm) or alternatively, referred to as counts per minute (cpm).
[formula] [formula] Where dpm=disintegrations per minute, cmpd=signal in assay well, and min and max are the respective minimum and maximum signal controls.
[formula] [formula] Where top and bottom are the normally allowed to float, but may be fixed at 100 or 0 respectively in a 3-parameter fit. The Hill Coefficient normally allowed to float but may also be fixed at 1 in a 3-parameter fit. Y is the % inhibition and X is the compound concentration.

SMILES	EC50 [1] [nM]	IC50 (PRMT5/MEP50) [nM]	EC50 ([1]; In Cell Western methylation) [nM]	IC50 (PRMT5/MEP50; PRMT5 biochemical assay) [nM]	EC50 (Z-138 cell line) [nM]	EC50 (Z-138 cell line; Cell Titer Glo) [nM]
O=C(NC[C@H](O)CN1CCc2ccccc2C1)c1ccnc(Nc2ccccn2)c1 [Compound 382]	< 100	< 100	–	–	101 to 1000	–
O=C(NCC(O)CN1CCc2ccccc2C1)c1ccccn1 (stereo not drawn) [Compound 17, N-(3-(3,4-dihydroisoquinolin-2(1H)-yl)-2-hydroxypropyl)picolinamide]	101 to 1000	101 to 1000	–	–	> 20000	–
NS(=O)(=O)c1ccc(C(=O)NCC(O)CN2CCc3ccccc3C2)cc1 (stereo not drawn) [Compound 21, N-(3-(3,4-dihydroisoquinolin-2(1H)-yl)-2-hydroxypropyl)-4-sulfamoylbenzamide]	101 to 1000	101 to 1000	–	–	> 20000	–
O=C(NC[C@H](O)CN1CCc2ccccc2C1)c1cnnc(OC2CCN(CC(F)(F)F)CC2)c1 [Compound 626]	–	–	101 to 1000	101 to 1000	–	1000 to 10000
CC(C)(C)C(=O)N1CCC(Nc2cc(C(=O)NC[C@H](O)CN3CCc4ccccc4C3)ccn2)CC1 [Compound 470]	–	–	< 100	< 100	–	< 100
CN(C)C(=O)CNCCOc1cccc(C(=O)NCC(O)CN2CCc3ccccc3C2)c1 (stereo not drawn) [Compound 340]	101 to 1000	101 to 1000	–	–	> 20000	–
CC(=O)N1CCC(Nc2cc(C(=O)NCCCN3CCc4ccccc4C3)ccn2)CC1 [Compound 654]	–	–	< 100	< 100	–	1000 to 10000
COCCN(CCOC)[C@H]1C[C@@H](Nc2cc(C(=O)NC[C@H](O)CN3CCc4ccccc4C3)ncn2)C1 [Compound 562]	–	–	< 100	< 100	–	101 to 1000
Cc1ccc2c(c1)CN(C[C@@H](O)CNC(=O)c1cc(NC3COC3)ncn1)CC2 [Compound 666]	–	–	101 to 1000	101 to 1000	–	> 5000
Cc1cc(C(=O)NC[C@H](O)CN2CCc3ccccc3C2)cc(NC2CCC2)n1 [Compound 348]	< 100	< 100	–	–	101 to 1000	–
CC(=O)N1CCN(c2nc(NC3COC3)cc(C(=O)NC[C@H](O)CN3CCc4ccccc4C3)n2)CC1 [Compound 497]	–	–	< 100	< 100	–	< 100
CNCCN(C)c1nc(NC2COC2)cc(C(=O)NC[C@H](O)CN2CCc3ccccc3C2)n1 [Compound 476]	–	–	< 100	< 100	–	101 to 1000
O=C(NC[C@H](O)CN1CCc2ccccc2C1)c1ccc(OCCCN2CCCC2)cc1 [Compound 372]	< 100	< 100	–	–	101 to 1000	–
Cc1cc(Nc2cc(C(=O)NC[C@H](O)CN3CCc4ccccc4C3)ccn2)n[nH]1 [Compound 433]	–	–	< 100	< 100	–	1000 to 10000
O=C(NC[C@H](O)CN1CCc2ccccc2C1)c1cc(NC2COC2)nc(C2CC2)n1 [Compound 480]	–	–	< 100	< 100	–	101 to 1000
COCCN1CCC(Nc2ccnc(C(=O)NC[C@H](O)CN3CCc4ccccc4C3)c2)CC1 [Compound 550]	–	–	< 100	< 100	–	1000 to 10000
CN1CCC(Nc2cc(C(=O)NC[C@H](O)CN3CCc4ccccc4C3)cnn2)C1 (stereo partly drawn) [Compound 689]	–	–	101 to 1000	< 100	–	> 5000
O=C(NC[C@H](O)CN1CCc2ccccc2C1)C1=CC2=N[C@H](CO)CN2C=N1 [Compound 548]	–	–	> 1000	101 to 1000	–	> 5000
O=C(NC[C@H](O)CN1CCc2ccccc2C1)c1ccc(OCCN2CCCC2)cc1 [Compound 383]	< 100	< 100	–	–	1000 to 10000	–
O=C(NC[C@H](O)CN1CCc2ccccc2C1)c1cc(NC2COC2)nc(NC2COC2)n1 [Compound 547]	–	–	< 100	< 100	–	< 100

Now from value to compound, other results behind:

EC50 [1] [nM]	IC50 (PRMT5/MEP50) [nM]	EC50 ([1]; In Cell Western methylation) [nM]	IC50 (PRMT5/MEP50; PRMT5 biochemical assay) [nM]	SMILES	EC50 (Z-138 cell line) [nM]	EC50 (Z-138 cell line; Cell Titer Glo) [nM]
–	–	101 to 1000	< 100	CCN(C)[C@H]1CC[C@@H](Nc2cc(C(=O)NC[C@H](O)CN3CCc4ccccc4C3)ncn2)CC1 [Compound 631]	–	> 5000
–	–	< 100	< 100	CC(=O)N1CCC[C@H](Nc2cc(C(=O)NC[C@H](O)CN3CCc4ccccc4C3)ncn2)C1 [Compound 572]	–	101 to 1000
–	–	< 100	< 100	CC(=O)N1CC(Nc2cc(C(=O)NC[C@H](O)CN3CCc4cc(C)ccc4C3)ncn2)C1 [Compound 674]	–	1000 to 10000
–	–	< 100	< 100	O=C(NC[C@H](O)CN1CCc2ccccc2C1)c1cc(NC2COC2)ccn1 [Compound 435]	–	101 to 1000
–	–	101 to 1000	< 100	CC(C)CN1CC(Nc2cc(C(=O)NC[C@H](O)CN3CCc4ccccc4C3)ncn2)C1 [Compound 438]	–	1000 to 10000
–	–	< 100	< 100	CO[C@H]1CC[C@H](Nc2cc(C(=O)NC[C@H](O)CN3CCc4ccccc4C3)ncn2)CC1 [Compound 586]	–	< 100
–	–	< 100	< 100	CC(=O)N1CC(Nc2cc(C(=O)NC[C@H](O)CN3CCc4ccccc4C3)nc(C(C)(C)C)n2)C1 [Compound 546]	–	< 100
–	–	< 100	< 100	O=C(NC[C@H](O)CN1CCc2ccccc2C1)c1cc(NC2CN(C(=O)C3CC3)C2)ncn1 [Compound 425]	–	< 100
–	–	< 100	< 100	COc1cc(C(=O)NC[C@H](O)CN2CCc3ccccc3C2)cc(NC2CCN(C(C)=O)CC2)n1 [Compound 627]	–	< 100
–	–	< 100	< 100	CC(=O)N1CC(Nc2cc(C(=O)NC[C@H](O)CN3CCc4ccccc4C3)nc(C(F)(F)F)n2)C1 [Compound 474]	–	101 to 1000
–	–	< 100	< 100	CC(=O)N1CC(Oc2cc(C(=O)NC[C@H](O)CN3CCc4ccccc4C3)ncn2)C1 [Compound 475]	–	101 to 1000
< 100	< 100	–	–	O=C(NC[C@H](O)CN1CCc2ccccc2C1)c1cc(N[C@@H]2CCOC2)ncn1 [Compound 365]	101 to 1000	–
–	–	< 100	< 100	CNC(=O)[C@H]1CC[C@@H](Nc2cc(C(=O)NC[C@H](O)CN3CCc4ccccc4C3)ncn2)CC1 [Compound 597]	–	101 to 1000
–	–	< 100	< 100	Cc1cc(Nc2cc(C(=O)NC[C@H](O)CN3CCc4ccccc4C3)ncn2)n[nH]1 [Compound 432]	–	1000 to 10000
101 to 1000	< 100	–	–	CN(C)CCNc1cc(C(=O)NC[C@H](O)CN2CCc3ccccc3C2)ncn1 [Compound 353]	10000 to 50000	–
–	–	< 100	< 100	CC(=O)N(C)[C@H]1CC[C@@H](Nc2cc(C(=O)NC[C@H](O)CN3CCc4ccccc4C3)ncn2)CC1 [Compound 632]	–	101 to 1000
–	–	< 100	< 100	CC(=O)N1CC(Nc2cc(C(=O)NCC(C)CN3CCc4ccccc4C3)ncn2)C1 (stereo not drawn) [Compound 659]	–	101 to 1000
–	–	< 100	101 to 1000	CC(=O)N1CC(Nc2cc(C(=O)NC[C@H](O)CN3CCc4ccc(C)cc4C3)ncn2)C1 [Compound 667]	–	1000 to 10000
–	–	< 100	< 100	CC(=O)N1CC(Nc2cc(C(=O)NC[C@H](O)CN3CCc4ccccc4C3)nc(C)n2)C1 [Compound 450]	–	101 to 1000
